Entries after “also recorded” stand apart in the source; their conditions may differ.
How the values were obtained:
[1] = Stability of crystalline forms held at room temperature, purity by HPLC; type: physicochemical; settings: for Purity / Stability at room temperature: HPLC; for Stability at room temperature: over twenty days at room temperature
Excerpt: The stabilities of some of the crystalline forms have been tested under various conditions. HPLC was used to determine the degree of degradation of topotecan hydrochloride over time.
The samples with different forms were held at room temperature for a specific period. We tested the purities of these samples by HPLC and observed the changes of their purities.
The changes to the purities of Forms D to I are summarized as follows: […]

[2] = Experiment 2: long-time stirring in ethyl acetate at room temperature, resulting crystalline form; type: physicochemical
Method: Topotecan hydrochloride (4.0 g Form A or Form D) is stirred in ethyl acetate (40 mL) for a long time (40, 80, or 200 hours) at room temperature. The solids are filtered and washed with cool ethyl acetate. Dry under vacuum at room temperature.

[3] = room temperature, duration 0 hour, hydrochloride
[4] = room temperature, duration 3 days, hydrochloride
[5] = room temperature, duration 32 days, hydrochloride
[6] = room temperature, duration 7 days, hydrochloride
[7] = room temperature, duration 20 days, hydrochloride
[8] = room temperature, duration 36 days, hydrochloride

Row | SMILES | Purity [1, 3] | Purity [1, 4] | Purity [1, 6] | Purity [1, 7] | also measured
1 | CC[C@@]1(O)C(=O)OCc2c1cc1n(c2=O)Cc2cc3c(CN(C)C)c(O)ccc3nc2-1.Cl [Form F, topotecan hydrochloride] | 99.94% | 99.92% | – | – | Purity ([1]; room temperature, duration 16 days): 99.91%; Purity [1, 5]: 99.91%
2 | CC[C@@]1(O)C(=O)OCc2c1cc1n(c2=O)Cc2cc3c(CN(C)C)c(O)ccc3nc2-1.Cl [Form E, topotecan hydrochloride] | 98.99% | 99.27% | 99.31% | 99.29% | Purity [1, 8]: 99.30%
3 | CC[C@@]1(O)C(=O)OCc2c1cc1n(c2=O)Cc2cc3c(CN(C)C)c(O)ccc3nc2-1.Cl [Form G, topotecan hydrochloride] | 99.11% | 99.06% | 99.00% | 98.88% | Purity [1, 5]: 99.06%
4 | CC[C@@]1(O)C(=O)OCc2c1cc1n(c2=O)Cc2cc3c(CN(C)C)c(O)ccc3nc2-1.Cl [Form D, topotecan hydrochloride] | 99.32% | 99.21% | 99.17% | 99.08% | Stability at room temperature compared with other Forms ([1]; room temperature): better than other Forms; Purity [1, 8]: 99.43%; Stability on long time stirring compared with Form A ([2]; long time stirring in ethyl acetate): more stable than Form A; Crystalline form after stirring ([2]; stirred in ethyl acetate 40 h at room temperature, hydrochloride): Form D → D; Crystalline form after stirring ([2]; stirred in ethyl acetate 80 h at room temperature, hydrochloride): Form D → D; Crystalline form after stirring ([2]; stirred in ethyl acetate 200 h at room temperature, hydrochloride): stable; also recorded: Form D → D
5 | CC[C@@]1(O)C(=O)OCc2c1cc1n(c2=O)Cc2cc3c(CN(C)C)c(O)ccc3nc2-1.Cl [Form A, topotecan monohydrochloride pentahydrate, reference compound] | – | – | – | – | Crystalline form after stirring ([2]; stirred in ethyl acetate 40 h at room temperature, listed as From A): From A → A; Crystalline form after stirring ([2]; stirred in ethyl acetate 80 h at room temperature): transform to Form E; also recorded: Form A → E; Crystalline form after stirring ([2]; stirred in ethyl acetate 200 h at room temperature): Form A → E
6 | CC[C@@]1(O)C(=O)OCc2c1cc1n(c2=O)Cc2cc3c(CN(C)C)c(O)ccc3nc2-1.Cl [Form H, topotecan hydrochloride] | 99.92% | 99.90% | 99.92% | 99.89% | Stability at room temperature [1]: substantially stable
7 | CC[C@@]1(O)C(=O)OCc2c1cc1n(c2=O)Cc2cc3c(CN(C)C)c(O)ccc3nc2-1.Cl [Form I, topotecan hydrochloride] | 99.70% | 99.65% | 99.56% | 99.56% | Stability at room temperature [1]: substantially stable

Source: patent US8013158B2, “Crystalline forms of topotecan hydrochloride and processes for making the same” (Scinopharm Taiwan Ltd., priority 2007, dated 2011)
